Results reported in PMC7961786, “Magic Peptide: Unique Properties of the LRR11 Peptide in the Activation of Leukotriene Synthesis in Human Neutrophils” (International Journal of Molecular Sciences, 2021).

B1: HMGB1: High-Mobility Group Box 1 (HMGB1) protein, a DAMP (protein, UniProt P09429 1-215, looked up)
High mobility group protein B1: MGKGDPKKPRGKMSSYAFFVQTCREEHKKKHPDASVNFSEFSKKCSERWKTMSAKEKGKFEDMAKADKARYEREMKTYIPPKGETKKKFKDPNAPKRPPSAFFLFCSEYRPKIKGEHPGLSIGDVAKKLGEMWNNTAADDKQPYEKKAAKLKEKYEKDIAAYRAKGKPDAAKKGVVKAEKSKKKKEEEEDEEDEEDEEEEEDEEDEDEEEDDDDE

How the values were obtained:
RAGE = settings: ref [53]; cited from earlier work
Text: Most likely, CpG-ODN can serve as a linker between various receptor molecules of neutrophils. We hypothesize that some receptors on the cell surface have a multivalent ability to bind a broad spectrum of ligands, including ODNs, and that the stimulatory action of LRR11 on the CpG-ODNs may be related to cooperation with other receptors on the neutrophil surface.

5′-biotinylated B-CpG = assay: TSM acoustic biosensor, peptide binding to immobilized B-CpG
Text: To characterize the interaction of the studied synthetic ODNs with the LRR11 peptide, we applied the thickness shear mode (TSM) acoustic biosensor method, which is based on the investigation of ultrasonic waves in piezoelectric materials such as AT-cut quartz. This approach involved immobilizing a 5′-biotinylated ODN on the surface of TSM transducer covered by NeutrAvidin and then adding the LRR11 peptide. An unrelated peptide (URP) with a random primary structure ([…]) was used as a negative control. The measurement procedure was divided into several steps, in which each immobilization stage was followed by washing with an appropriate buffer solution; when peptide solutions at different concentrations (from 1 to 100 nM) were added to the surface-modified TSM transducer, a wash with Hanks buffer was used before increasing the peptide concentration.
Based on Langmuir isotherm Equation (1), (1) Δfcc=Δfsmaxc/KD+c where Δfs(c) is the frequency change at a certain peptide concentration under equilibrium conditions, (Δfs)max is the maximum frequency change, c is the peptide concentration, and KD is the equilibrium constant of dissociation, we estimated the (Δfs)max and KD values for binding of the LRR11 peptide to C-CpG and B-CpG (Table 3).
Eight MHz AT-cut piezoelectric quartz crystal transducer was obtained from CH Instruments, Austin, TX, USA. The transducer was covered on both sides with thin layers of gold that served as electrodes (working area 0.2 cm^2). Prior ODNs immobilization, the crystal was carefully cleaned with basic Piranha solution (29% NH3, 30% H2O and H2O2 with volumetric 1:5:1 ratio, respectively) for 25 min. After the thorough cleaning, the crystal was positioned between two silicon O-rings in a flow-through cell. The analyte was injected into the cell using a Genie Plus syringe pump (Kent Scientific, Torrington, CT, USA) at a flow rate of 50 μL/min. Each solution was applied until the resonance frequency stabilized. The surface of the transducer was first washed with deionized water, and then 125 μg/mL NeutrAvidin (WWR International GmbH, Vienna, Austria) solution in water was applied. Approximately 15 min were required to stabilize the signal at a constant NeutrAvidin flow rate. This was followed by washing with water to rinse out all non-chemisorbed NeutrAvidin molecules. Immobilization of ODN on the gold surface of the crystals is accomplished using avidin–biotin interactions. A 1 μM 5′-biotinylated ODN solution was injected over the neutravidin-modified surface and subsequently the crystal was washed again with water. The system was then equilibrated using Hanks buffer solution. This buffer was suitable for studying LRR11–ODN binding. Then LRR11 was used at concentrations of 1, 5, 10, 50 and 100 nM […] in Hanks buffer. After each addition of LRR11, the sensor surface was washed with Hanks buffer and LRR11 with the higher concentration was added. All binding experiments were carried out at room temperature. Buffer and sample solutions were introduced in a flow-through format. A network analyzer 8712ES (Agilent Technologies, Santa Clara, CA, USA) was used to measure the impedance properties of the sensor and determine fS and Rm.

[1] = system: human neutrophils (PMNLs), 5-LOX product synthesis; assay: 5-LOX metabolite synthesis in human neutrophils stimulated with opsonized S. typhimurium (HPLC); assay type: cell-based
Protocol: Figure 1 Effects of LRR11 and ODNs on the formation of LTB4 (A,B) and the sum of 5-LOX metabolites (ω-OH-LTB4, LTB4 and its isomers, and 5-HETE) (C) in human PMNLs. PMNLs (2 × 10^7) were incubated for 15 min at 37 °C without (black bars) or with 1 μM LRR11 (A, LRR11_first); then ODNs and LRR11 or LPS were added; various ways of adding ODN and LRR11 peptide are indicated. In control samples, Hanks’ solution was added instead of ODNs. After 20 min, 0.5 × 10^9 S. typhimurium bacterial cells were added for a further 15 min. The 5-LOX products were determined using HPLC. Values indicate mean ± SEM of five independent experiments performed in duplicate. * p < 0.05, ** p < 0.01, *** p < 0.005, compared with the control. # p < 0.05, ## p < 0.01 for pairs of data compared as indicated by two-way ANOVA followed by Tukey’s multiple comparison test.
Figure 3 Synthesis of the 5-LOX metabolites in PMNLs exposed to opsonized S. typhimurium bacteria in the presence of the RAGE antagonist FPS-ZM1. PMNLs (2 × 10^7) were incubated for 15 min at 37 °C without additives or with 0.15 µM FPS-ZM1, for the next 20 min the mixture was incubated with 1 µM ODNs without (black bars) or with 1 µM LRR11 (gray bars) before adding 5 × 10^8 S. typhimurium for 15 min. In control samples, Hanks’ solution was added instead of ODNs. The 5-LOX products were determined using HPLC. Graphical data are presented for LTB4 (A) or the sum of LTB4 and its isomers, ω-OH-LTB4 and 5-HETE, designed as Σ5LOX products (B).
Human neutrophils were isolated from freshly taken citrate-anticoagulated peripheral blood from healthy individuals using standard methods. Leukocyte-rich plasma was prepared by sedimentation of erythrocytes with 3% dextran T-500 at room temperature. For purification of granulocytes, centrifugation through Ficoll-Paque (density 1.077 g/mL) was used, followed by hypotonic lysis of the remaining erythrocytes. […] All methods were performed in accordance with the relevant instructions and regulations of the Ministry of Health of the Russian Federation and local legislation.
Bacteria (S. typhimurium IE 147 strain) obtained from the Collection of Gamaleya National Research Center of Epidemiology and Microbiology (Moscow, Russia) were grown in Luria–Bertani broth to a concentration of 1 × 10^9 colony-forming units (CFU)/mL. The bacteria were collected by centrifugation at 2000 g and opsonized immediately before the experiment for 30 min in 20% (v/v) fresh serum from the same donor whose blood was used to isolate neutrophils. Repeated centrifugation in Dulbecco’s solution was used to wash the bacteria.
The cell suspension (2 × 10^7 PMNLs in HBSS/HEPES, reaction volume of 6 mL) was cultured for 15 min in an incubator at 37 °C, 5% CO2. Then 1.0 µM ODN with or without 1.0 µM LRR11, or 2 µg/mL LPS, was added as indicated. After 20 min, the cells were stimulated with S. typhimurium (the ratio of bacteria to PMNLs was approximately 20:1) for the next 15 min [3]. The synthesis of 5-LOX metabolites was stopped by adding an equal volume of methanol at −20 °C with prostaglandin B2 as an internal standard. Samples were stored at −20 °C. The denatured cell suspension was centrifuged, and supernatants designated as water/methanol extracts.
To purify the water/methanol extracts, solid-phase extraction was used on Sep-Pak C18 cartridges (500 mg; Macherey-Nagel, Dueren, Germany), which were conditioned first with methanol, and then with water. Major 5-LOX metabolites were identified by comparing retention times with those of known compounds, as previously described.
Table S1. Effect of Chloroquine on 5-LOX product formation in PMNLs after ODN priming followed by the addition
of opsonized S. typhimurium bacteria.

[2] = system: vascular smooth muscle cells; settings: ref [56]; cited from earlier work
Text: (§1) RAGE is shown to bind molecules, known as damage-associated molecular patterns (DAMPs), released by cells that die or are under conditions of inflammation.

[3] = system: human monocytes, leukotriene production; settings: RAGE-dependent pathway; ref [55]; cited from earlier work
Text: as §1

Molecule | degradation of RAGE receptor after RAGE binding (RAGE) | KA (5′-biotinylated B-CpG; LRR11-B-CpG complex, KA = 1/KD) [nM⁻¹] | −(Δfs)max (5′-biotinylated B-CpG; LRR11 to immobilized B-CpG, Langmuir fit, Hanks buffer, room temperature, LRR11 1-100 nM, three independent experiments) [Hz] | effect on 5-LOX activity / leukotriene synthesis ([1]; ODN alone, 1 µM, 20 min, then opsonized S. typhimurium 15 min, Figure 1, five independent experiments in duplicate) | Σ 5-LOX metabolites ([1]; Table S1, 2×10^7 PMNLs, 15 min at 37 °C without or with 5 µM Chloroquine, then ODN, after 20 min 0.5×10^9 opsonized S. typhimurium for 15 min, mean ± SEM, three independent experiments) [ng/107 PMNLs] | RAGE expression / LTB4 production in vascular smooth muscle cells [2] | leukotriene production in human monocytes [3]
5′-tcgtcgttttgtcgttttgtcgtt-3′ [B-CpG] | promoted rapid lysosomal degradation of the receptor | 0.018 ± 0.006 | 26.6 ± 3.8 | increased leukotriene synthesis | 43.9 ± 4.1 | – | –
B1 | – | – | – | – | – | enhanced RAGE expression along with an increase in LTB4 production | induce leukotriene production in human monocytes through a RAGE-dependent pathway
